Here are results for two compounds from paper PMC9124820, “In vitro evaluation of fenfluramine and norfenfluramine as victims of drug interactions” (Pharmacology Research & Perspectives, 2022).

For series [1], the target named is T1, MATE1 (Homo sapiens, UniProt Q96FL8).
T1 construct: host or cells: HEK293
T1 sequence (Q96FL8 1-570): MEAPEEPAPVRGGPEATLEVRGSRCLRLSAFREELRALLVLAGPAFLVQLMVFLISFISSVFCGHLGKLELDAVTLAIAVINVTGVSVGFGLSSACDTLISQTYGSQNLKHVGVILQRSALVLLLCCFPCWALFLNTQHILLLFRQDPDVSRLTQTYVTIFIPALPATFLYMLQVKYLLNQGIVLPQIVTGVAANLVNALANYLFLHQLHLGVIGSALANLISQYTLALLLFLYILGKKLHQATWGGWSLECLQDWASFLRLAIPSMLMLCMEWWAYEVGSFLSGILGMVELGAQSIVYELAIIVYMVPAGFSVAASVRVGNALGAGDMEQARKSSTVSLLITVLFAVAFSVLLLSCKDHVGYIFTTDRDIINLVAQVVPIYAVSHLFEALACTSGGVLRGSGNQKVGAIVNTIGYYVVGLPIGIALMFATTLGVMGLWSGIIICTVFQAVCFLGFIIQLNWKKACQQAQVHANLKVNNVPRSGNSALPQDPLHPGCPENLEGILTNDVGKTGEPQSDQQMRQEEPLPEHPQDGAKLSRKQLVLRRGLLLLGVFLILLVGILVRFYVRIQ
As to the kind of experiment: Transporter substrate determination, uptake in HEK293-MATE1 cells. To be noted: for Maximum Ratio (uptake in transporter‐expressing cells to empty‐vector control cells): HEK293‐MATE1, 0.1, 1, 10 µM, threshold ≥2‐fold; for substrate of the transporter: MATE1. It counts as in vitro ADME. As for the experimental part: (§1) LC‐MS/MS analyses to assess metabolic stability and identify the transporter substrate were performed using an API 4000 QTRAP mass spectrometer (SCIEX, Framingham, MA) with electrospray ionization in positive mode. Chromatography was performed using an Atlantis dC18 analytical column (100 × 2.1 mm, 5 µm; Waters Corporation, Milford, MA). Mobile phases were 0.2% v/v formic acid in water and 0.2% v/v formic acid in acetonitrile. For metabolic stability experiments, FFA and metabolites were eluted at a flow rate of 0.6 mL/min, with a linear gradient of 20%−80% acetonitrile from 0.30−2.0 min. For transporter substrate experiments, the gradient was slightly modified to achieve suitable chromatography. The mass transitions monitored were 232.0 > 159.0 for FFA and 348.0 > 330.0 for 1ʹ‐OH‐midazolam‐d4 internal standard.
(§2) FFA and nFFA were evaluated as substrates of the transporters breast cancer resistance protein (BCRP), organic anion transporter (OAT)1, OAT3, organic cation transporter (OCT)2, MATE1, MATE2‐K, and P‐glycoprotein multidrug transporter (P‐gp; also known as MDR1 and ABCB1), according to published methods.[25], [26], [27], [28], [29] Madin‐Darby canine kidney (MDCKII)‐BCRP cells (Netherlands Cancer Institute, Amsterdam, Netherlands) or human embryonic kidney (HEK)293 cells transfected with other transporters (Sekisui Medical Co., Ltd., Tokyo, Japan) were used. Transporter‐transfected and control cells were incubated with FFA or nFFA (0.1, 1, or 10 μM), and the amount of FFA and nFFA accumulated in the cells was measured by LC‐MS/MS as described above. The accumulation of positive control substrates in the presence and absence of an inhibitor served as a positive control for transporter function. […] BCRP substrate determination was made by bi‐directional permeability across MDCKII‐BCRP and control cells cultured on 24‐well transwell plates. Incubation medium containing probe substrate was added. Ten minutes later, transepithelial electrical resistance (TEER) was recorded and cells were preincubated at 37 ± 2°C for 30−60 min before FFA or nFFA or positive control substrate with the solvent control or positive control inhibitor was added to the donor (apical) chamber. […] Samples containing FFA, nFFA, or probe substrate were mixed with internal standard and analyzed by LC‐MS/MS. […] An aliquot was added to 96‐well plate containing scintillation fluid that was analyzed by a MicroBeta^2 scintillation counter (Perkin Elmer, Waltham, MA). Protein concentration was determined by a bicinchoninic acid (BCA) protein assay according to the manufacturer’s protocol (Thermo Fisher Scientific, Waltham, MA). Non‐radiolabeled compounds were resuspended in a 50:50 v/v methanol:water solution containing internal standard and were analyzed by LC‐MS/MS. […]

The target in series [2] is T2, OAT3 (Homo sapiens, UniProt Q8TCC7).
T2 construct: host or cells: HEK293
T2 sequence (Q8TCC7 1-542): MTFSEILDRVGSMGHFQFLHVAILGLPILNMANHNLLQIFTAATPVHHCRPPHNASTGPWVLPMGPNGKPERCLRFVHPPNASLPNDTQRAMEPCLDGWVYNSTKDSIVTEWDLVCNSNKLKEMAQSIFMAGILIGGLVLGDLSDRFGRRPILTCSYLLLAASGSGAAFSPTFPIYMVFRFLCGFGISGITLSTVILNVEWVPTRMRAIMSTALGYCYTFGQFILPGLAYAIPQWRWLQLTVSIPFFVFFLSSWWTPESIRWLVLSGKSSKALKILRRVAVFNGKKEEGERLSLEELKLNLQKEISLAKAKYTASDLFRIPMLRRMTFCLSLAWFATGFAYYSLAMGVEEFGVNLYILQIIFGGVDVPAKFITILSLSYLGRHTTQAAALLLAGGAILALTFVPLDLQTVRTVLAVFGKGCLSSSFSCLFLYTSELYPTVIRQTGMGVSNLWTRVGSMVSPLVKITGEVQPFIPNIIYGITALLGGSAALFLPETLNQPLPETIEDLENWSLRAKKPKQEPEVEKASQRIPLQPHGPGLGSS
As to the kind of experiment: Transporter substrate determination, uptake in HEK293-OAT3 cells. In kind it is in vitro ADME. To be noted: for Maximum Ratio (uptake in transporter‐expressing cells to empty‐vector control cells): HEK293‐OAT3, 0.1, 1, 10 µM, threshold ≥2‐fold; for substrate of the transporter: OAT3. Here is the method:
as §1, §2

Molecules are shown by their SMILES.

In the case of `CCNC(C)Cc1cccc(C(F)(F)F)c1` (racemic) [FFA, (RS)‐ethyl (α‐methyl‐3‐trifluoromethylphenethyl)amine], in series [1], the “Maximum Ratio (uptake in transporter‐expressing cells to empty‐vector control cells)” value (shortened to “Maximum Ratio”) was found to be 1.10 and the “substrate of the transporter” value was “not substrates”. In series [2], the “Maximum Ratio” value turned out to be 1.15 and the “substrate of the transporter” value is listed as “not substrates”.

As to `CC(N)Cc1cccc(C(F)(F)F)c1.Cl` (centres unmarked) [nFFA, 1‐(3‐(trifluoromethyl)phenyl)propan‐2‐amine hydrochloride], in series [1], the “Maximum Ratio” value is 1.00 and the “substrate of the transporter” value is given as “not substrates”. In series [2], the “Maximum Ratio” value is given as 1.74 and the “substrate of the transporter” value is “not substrates”.
